For experiment [1], the system named is IL-6 (Interleukin-6) production. The experiment is described as follows: LPS (lipopolysaccharide) induced IL-6 production mouse assay. The format is in vivo, mice. As to conditions: oral administration 1 h before LPS 2.5 mg/kg ip, serum 2 h after LPS, p < 0.05 vs vehicle. As for the experimental part:
LPS (Lipopolysaccharide) Induced IL-6 Production Mouse Assay
Compounds of the Examples listed in Table 2 were assayed for their ability to inhibit LPS (lipopolysaccharide) induced IL-6 (Interleukin-6) production in mice. Fox Chase SCID® female mice (Charles Rivers Labs, 5 per group) or CD1 female mice (5 per group) received an intraperitoneal challenge of lipopolysaccharide (2.5 mg/kg, L2630 E. coli 0111:B4) one hour after oral administration of compounds. Mice were euthanized 2 hours after lipopolysaccharide injection, blood was removed by cardiac puncture, and then the serum harvested from the blood samples was frozen at −80° C. On the day of the assay the serum samples were brought to room temperature and then diluted 1:20 in phosphate-buffered saline containing 2% bovine serum albumin. Interleukin-6 measurements were performed using a cytokine assay from Meso Scale Discovery (Gaithersburg, Md.) for mouse serum analysis according to the manufacturer's protocol and read on a SECTOR Imager 6000 (Meso Scale Discovery, Gaithersburg, Md.) instrument. Statistical analysis was performed using Prism software (version 5.0) incorporating Dunnett's one way ANOVA. The IL-6 mean and standard deviation of the group of vehicle treated animals were compared with the IL-6 mean and standard deviation of the group treated with drug. A p value <0.05 means that there is less than a 5% probability that the mean values in the two groups are equal.

The next experiment addresses T1, BRD4 (BDII_E352-M457) (Homo sapiens, UniProt O60885).
T1 construct: protocol; made in house
The experiment is described as follows: TR-FRET bromodomain binding assay, second bromodomain of BRD4. To be noted: 30 nM probe. Put shortly:
(§1)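 His-tagged BRD4 bromodomain (8 nM) was incubated with Eu-anti-His antibody (1 nM) and an Alexa647-labelled BET-inhibitor probe (100 nM for BDI, 30 nM for BDII) in pH 6.0 phosphate buffer with 2% DMSO for 1 h at room temperature. TR-FRET ratio was read, IC50 fitted by 4-parameter logistic, then converted to Ki.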

The target in a further experiment is T2, BRD4 (BDI_K57-E168) (Homo sapiens, UniProt O60885).
T2 construct: BD1: amino acids K57-E168; made in house
In words: TR-FRET bromodomain binding assay, first bromodomain of BRD4. To be noted: 100 nM probe. The procedure, abridged:
as §1
On the technique in general: In TR-FRET formats the signal depends on donor and acceptor labels being close together.

For the next experiment, the system named is OPM-2 xenograft tumors. As to conditions: SCID-beige mice.
Experiment [2] relates to breast cancer cell line MX-1. The experiment is described as follows: MX-1 cell line proliferation assay. It is filed as cell-based. As to conditions: MX-1 cells, 3-day proliferation assay, Cell Titer Glo, read-out: Cellular proliferation: EC50. Put shortly:
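EC50 comes from sigmoidal fits of Cell Titer Glo luminescence relative to DMSO controls, with assay MSR 2.1. Ten-point 3-fold dilutions (top 3 or 1 μM final) were added to MX-1 breast cancer cells after overnight adhesion. Cells were at 5000/well and proliferation ran 3 days.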
A general note: ATP-based viability assays read luminescence as a measure of living cells.

Where [3] appears, read: TR-FRET assay protocol G (compound 0.92 μM-15 pM).
Setting [4] is: TR-FRET assay protocol E (compound 9.19 μM-150 pM).

Experimental findings from US10035800B2 (AbbVie Inc., priority 2013, dated 2018) are described below.

Several values for one entry are separate records, joined by “and”; a condition that tells them apart may be missing. Equal entries are not always repeated. Where two headings read alike, the source gives them in different places. Marks after values point to notes of the source that are not given here.

Usually Ki stands for the dissociation constant of the complex between target and ligand, obtained from inhibition or displacement. A high value points to a looser hold on the target.

Experimental for OPM-2 xenograft tumors: Xenograft Tumor Growth Inhibition Assay
A suspension of cancer cells (5×10^6 per 0.1 mL) prepared in RPMI culture medium (Invitrogen, Carlsbad, Calif.) was diluted 1:1 with a solution of Matrigel™ (BD Biosciences, Franklin Lakes, N.J.) and inoculated subcutaneously into the right hind flank of female SCID-beige (Charles River Labs) mice. Randomization into treatment and vehicle control groups (8-10/group) occurred when the mean tumor volume reached approximately 250 mm^3. Compounds were formulated in 2.5% DMSO, 10% ethanol, 27.5% PEG 400, 60% Phosol 53 MCT. Administration of compound or vehicle was initiated on the day following randomization and continued for 21 days. Tumors were measured twice a week throughout the treatment period using a pair of calipers and tumor volumes were calculated according to the formula V=L×W^2/2 (V: volume, mm^3; L: length, mm. W: width, mm).

As for `CCOC(=O)N1Cc2c[nH]c3c(=O)n(C)cc(c23)-c2cc(F)cc(F)c21` [Example 173, ethyl 5,7-difluoro-10-methyl-11-oxo-10,11-dihydro-1H-1,4,10-triazadibenzo[cd,f]azulene-4(3H)-carboxylate], the “% inhibition of LPS induced IL-6 production” value (from here on “% inhibition”) in experiment [1] (mouse strain CD1) is given as 87%. For the same molecule, the Ki on BRD4 (BDII_E352-M457) (setting [3]) is 3.14 nM; at BRD4 (BDI_K57-E168) (setting [3]), 6.72 nM. The “% TGI” value in the experiment with OPM-2 xenograft tumors (1.25 mg/kg PO, QD x21) is recorded as 49** %. In addition, the EC50 in experiment [2] was 19.9 nM.
For `Cn1cc2c3c(c[nH]c3c1=O)CN(c1ccc(F)cc1)c1ccc(CS(C)(=O)=O)cc1-2` [Example 9, 4-(4-fluorophenyl)-10-methyl-7-((methylsulfonyl)methyl)-3,4-dihydro-1H-1,4,10-triazadibenzo[cd,f]azulen-11(10H)-one], the “% inhibition” value in experiment [1] (mouse strain SCID) stood at 79%. In addition, the Ki was 1.11 nM at BRD4 (BDII_E352-M457) (setting [3]) and 0.453 nM at BRD4 (BDI_K57-E168) (setting [3]). In addition, the “% TGI” value with OPM-2 xenograft tumors (1.85 mg/kg PO, QD x21) is 87*** %. Also, the EC50 in experiment [2] is 0.721 nM.
As to `Cn1cc2c3c(c[nH]c3c1=O)CN(c1ccc(F)cc1F)c1ccc(CS(C)(=O)=O)cc1-2` [Example 12, 4-(2,4-difluorophenyl)-10-methyl-7-((methylsulfonyl)methyl)-3,4-dihydro-1H-1,4,10-triazadibenzo[cd,f]azulen-11(10H)-one], the “% inhibition” value in experiment [1] (mouse strain SCID) worked out at 90%. In addition, the Ki on BRD4 (BDII_E352-M457) (setting [3]) is 0.472 nM; on BRD4 (BDI_K57-E168) (setting [3]) it was 1.34 nM. For the same molecule, the “% TGI” value in the experiment on OPM-2 xenograft tumors (1.5 mg/kg IP, QD x21) is 82** % and 91*** %; in the experiment with OPM-2 xenograft tumors (1.5 mg/kg PO, QD x21), 87*** %; with OPM-2 xenograft tumors (3 mg/kg IP, QD x21), 89** %; in the experiment with OPM-2 xenograft tumors (3 mg/kg PO, 3 on 4 off x3 weeks) it was 81*** %; with OPM-2 xenograft tumors (3 mg/kg PO, QD x11), 72*** %; in the experiment on OPM-2 xenograft tumors (3 mg/kg PO, QD x21), 94*** %. Besides, in experiment [2], the EC50 was 4 nM.
Regarding `CCCCN1Cc2c[nH]c3c(=O)n(C)cc(c23)-c2cc(CS(C)(=O)=O)ccc21` [Example 24, 4-butyl-10-methyl-7-((methylsulfonyl)methyl)-3,4-dihydro-1H-1,4,10-triazadibenzo[cd,f]azulen-11(10H)-one], in experiment [1] (mouse strain SCID), the “% inhibition” value is listed as 78%. Moreover, the Ki is 0.801 nM on BRD4 (BDII_E352-M457) (setting [4]) and 0.963 nM on BRD4 (BDI_K57-E168) (setting [4]). For the same molecule, the EC50 in experiment [2] stood at 1.07 nM.
As to `Cn1cc2c3c(c[nH]c3c1=O)CN(c1ncc(F)cc1F)c1ccc(CS(C)(=O)=O)cc1-2` [Example 213, 4-(3,5-difluoropyridin-2-yl)-10-methyl-7-((methylsulfonyl)methyl)-3,4-dihydro-1H-1,4,10-triazadibenzo[cd,f]azulen-11(10H)-one], the Ki on BRD4 (BDII_E352-M457) (setting [3]) was 0.42 nM; on BRD4 (BDI_K57-E168) (setting [3]) it was 0.65 nM. Further, the “% TGI” value in the experiment on OPM-2 xenograft tumors (0.5 mg/kg PO, QD x21) was 82*** %; in the experiment on OPM-2 xenograft tumors (1 mg/kg PO, QD x21), 96*** % and 95*** %. Moreover, in experiment [2], the EC50 stood at 1.4 nM.
As to `Cn1cc2c3c(c[nH]c3c1=O)CN(C1CCC(F)(F)CC1)c1ccc(CS(C)(=O)=O)cc1-2` [Example 30, 4-(4,4-difluorocyclohexyl)-10-methyl-7-((methylsulfonyl)methyl)-3,4-dihydro-1H-1,4,10-triazadibenzo[cd,f]azulen-11(10H)-one], in experiment [1] (mouse strain SCID), the “% inhibition” value is 81%. The inhibition constant (Ki) at BRD4 (BDII_E352-M457) (setting [4]) turned out to be 1.36 nM; at BRD4 (BDI_K57-E168) (setting [4]), 4.98 nM. The EC50 in experiment [2] was 1.39 nM.
As for `Cn1cc2c3c(c[nH]c3c1=O)CN(CCC1CCOCC1)c1ccc(CS(C)(=O)=O)cc1-2` [Example 191, 10-methyl-7-((methylsulfonyl)methyl)-4-(2-(tetrahydro-2H-pyran-4-yl)ethyl)-3,4-dihydro-1H-1,4,10-triazadibenzo[cd,f]azulen-11(10H)-one], in experiment [1] (mouse strain CD1), the “% inhibition” value worked out at 60%. The Ki stood at 3.38 nM at BRD4 (BDII_E352-M457) (setting [3]) and 1 nM at BRD4 (BDI_K57-E168) (setting [3]). Also, the EC50 in experiment [2] turned out to be 10.7 nM.
With `[2H]C1([2H])c2c[nH]c3c(=O)n(C)cc(c23)-c2cc(CS(C)(=O)=O)ccc2N1c1ccc(F)cc1` [Example 31, 4-(4-fluorophenyl)-(3,3-^2H2)-10-methyl-7-((methylsulfonyl)methyl)-3,4-dihydro-1H-1,4,10-triazadibenzo[cd,f]azulen-11(10H)-one], the “% inhibition” value in experiment [1] (mouse strain SCID) is on record as 83%. Moreover, the inhibitory constant (Ki) on BRD4 (BDII_E352-M457) (setting [3]) is 1.18 nM; at BRD4 (BDI_K57-E168) (setting [3]), 1.67 nM. Moreover, the EC50 in experiment [2] (Homo sapiens, MX1, 72 h) came to 0.752 nM.
`Cn1cc2c3c(c[nH]c3c1=O)CN(C1CCC(NC(=O)OC(C)(C)C)CC1)c1ccc(CS(C)(=O)=O)cc1-2` (mixture of isomers) [Example 196]: the “% inhibition” value in experiment [1] (mouse strain CD1) was 79%. Besides, the inhibition constant (Ki) at BRD4 (BDII_E352-M457) (setting [3]) came to 1.72 nM; at BRD4 (BDI_K57-E168) (setting [3]) it was 1.14 nM. Also, the “% TGI” value in the experiment on OPM-2 xenograft tumors (2.5 mg/kg PO, QD x21) was 84*** %; in the experiment with OPM-2 xenograft tumors (5 mg/kg PO, QD x21), 92*** %. Further, the EC50 in experiment [2] was 3.82 nM.
On to `CC(C)CN1Cc2c[nH]c3c(=O)n(C)cc(c23)-c2cc(CS(C)(=O)=O)ccc21` [Example 149, 4-isobutyl-10-methyl-7-((methylsulfonyl)methyl)-3,4-dihydro-1H-1,4,10-triazadibenzo[cd,f]azulen-11(10H)-one], for which the “% inhibition” value in experiment [1] (mouse strain CD1) worked out at 86%. The Ki turned out to be 0.82 nM on BRD4 (BDII_E352-M457) (setting [3]) and 1.78 nM on BRD4 (BDI_K57-E168) (setting [3]). For the same molecule, in experiment [2], the EC50 is 1.93 nM.
Consider “4-(2,4-difluorophenyl)-10-methyl-7-((methylsulfonyl)methyl)-11-oxo-3,4,10,11-tetrahydro-1H-1,4,10-triazadibenzo[cd,f]azulene-5-carbonitrile [Example 206]”, for which the “% inhibition” value in experiment [1] (mouse strain CD1) was determined as 76%. The Ki at BRD4 (BDII_E352-M457) (setting [3]) came to 0.51 nM; at BRD4 (BDI_K57-E168) (setting [3]), 0.96 nM. Besides, the EC50 in experiment [2] was 1.41 nM.
Consider “4-(cyclopropylmethyl)-10-methyl-7-((methylsulfonyl)methyl)-3,4-dihydro-1H-1,4,10-triazadibenzo[cd,f]azulen-11(10H)-one [Example 6]”, for which, in experiment [1] (mouse strain SCID), the “% inhibition” value is 64%. In addition, the Ki on BRD4 (BDII_E352-M457) (setting [4]) is 1.71 nM; on BRD4 (BDI_K57-E168) (setting [4]), 1.08 nM. Besides, the EC50 in experiment [2] came out at 2.01 nM.
In the case of `Cn1cc2c3c(c[nH]c3c1=O)CN(CC1CCOC1)c1ccc(CS(C)(=O)=O)cc1-2` (centres unmarked) [Example 26], the “% inhibition” value in experiment [1] (mouse strain SCID) stood at 88%. The figures for the Ki on BRD4 (BDII_E352-M457) (setting [3]) and at BRD4 (BDI_K57-E168) (setting [3]) were 0.719 nM and 0.701 nM, respectively. The EC50 in experiment [2] was 1.03 nM.
Take `CCNC(=O)c1[nH]c2c(=O)n(C)cc3c2c1CN(c1ccc(F)cc1F)c1ccc(CS(C)(=O)=O)cc1-3` [Example 202, 4-(2,4-difluorophenyl)-N-ethyl-10-methyl-7-((methylsulfonyl)methyl)-11-oxo-3,4,10,11-tetrahydro-1H-1,4,10-triazadibenzo[cd,f]azulene-2-carboxamide]: the “% inhibition” value in experiment [1] (mouse strain CD1) came out at 47%. Moreover, the Ki at BRD4 (BDII_E352-M457) (setting [3]) is 0.35 nM; at BRD4 (BDI_K57-E168) (setting [3]) it was 0.79 nM. Also, the EC50 in experiment [2] was determined as 4.3 nM.
In the case of `COCCC1c2c[nH]c3c(=O)n(C)cc(c23)-c2cc(CS(C)(=O)=O)ccc2N1CC1CC1` (racemic) [Example 15, 4-(cyclopropylmethyl)-3-(2-methoxyethyl)-10-methyl-7-((methylsulfonyl)methyl)-3,4-dihydro-1H-1,4,10-triazadibenzo[cd,f]azulen-11(10H)-one], the “% inhibition” value in experiment [1] (mouse strain SCID) amounted to 68%. Further, the inhibition constant (Ki) at BRD4 (BDII_E352-M457) (setting [4]) turned out to be 0.631 nM; on BRD4 (BDI_K57-E168) (setting [4]), 5.22 nM. The EC50 in experiment [2] amounted to 8.75 nM.
